Source: ChEMBL document CHEMBL4765228, “Indole-like Trk receptor antagonists” (Eur J Med Chem, 2016)

Legend:
[1] = biological target: RAC-alpha serine/threonine-protein kinase (Homo sapiens) (UniProt P31749); assay: Inhibition of human AKT1 (104 to 408 residues) assessed as residual activity at 0.1 uM relative to control
[2] = biological target: Aurora kinase B (Homo sapiens) (UniProt Q96GD4); assay: Inhibition of human Aurora-B assessed as residual activity at 0.1 uM relative to control
[3] = biological target: Calcium/calmodulin-dependent protein kinase kinase 2 (Homo sapiens) (UniProt Q96RR4); assay: Inhibition of human CAMKK2 assessed as residual activity at 1 uM relative to control
[4] = biological target: Serine/threonine-protein kinase Chk2 (Homo sapiens) (UniProt O96017); assay: Inhibition of human CHK2 assessed as residual activity at 1 uM relative to control
Serine/threonine-protein kinase Chk2 (Homo sapiens), sequence (O96017 whole entry, canonical isoform): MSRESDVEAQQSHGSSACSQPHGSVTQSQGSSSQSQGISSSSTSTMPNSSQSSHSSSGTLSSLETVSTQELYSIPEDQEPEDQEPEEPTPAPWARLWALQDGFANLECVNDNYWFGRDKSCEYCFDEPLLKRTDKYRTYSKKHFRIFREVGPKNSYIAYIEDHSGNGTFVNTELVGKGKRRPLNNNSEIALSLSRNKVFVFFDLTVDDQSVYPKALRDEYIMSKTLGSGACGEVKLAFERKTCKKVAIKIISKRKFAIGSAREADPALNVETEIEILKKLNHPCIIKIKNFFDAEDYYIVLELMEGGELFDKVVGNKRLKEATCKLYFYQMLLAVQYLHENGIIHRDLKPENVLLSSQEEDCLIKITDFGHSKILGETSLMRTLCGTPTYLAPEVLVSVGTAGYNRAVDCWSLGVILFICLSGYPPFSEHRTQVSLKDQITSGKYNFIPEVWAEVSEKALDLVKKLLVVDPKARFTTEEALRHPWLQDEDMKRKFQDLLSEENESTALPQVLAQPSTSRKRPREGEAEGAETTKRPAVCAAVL

[5] = biological target: Casein kinase I isoform delta (Homo sapiens) (UniProt P48730); assay: Inhibition of human CK1-delta assessed as residual activity at 0.1 uM relative to control
[6] = biological target: Casein kinase I isoform delta (Homo sapiens) (UniProt P48730); assay: Inhibition of human CK1-delta assessed as residual activity at 1 uM relative to control
[7] = biological target: Ephrin type-A receptor 2 (Homo sapiens) (UniProt P29317); assay: Inhibition of human EPHA2 assessed as residual activity at 1 uM relative to control
[8] = biological target: Mitogen-activated protein kinase 14 (Homo sapiens) (UniProt Q16539); assay: Inhibition of human p38-alpha assessed as residual activity at 1 uM relative to control
Homo sapiens [9] = organism: Homo sapiens; assay: Inhibition of human PKA assessed as residual activity at 0.1 uM relative to control
Homo sapiens [10] = organism: Homo sapiens; assay: Inhibition of human PKA assessed as residual activity at 1 uM relative to control
[11] = biological target: Protein kinase C alpha type (Homo sapiens) (UniProt P17252); assay: Inhibition of human PKCalpha assessed as residual activity at 1 uM relative to control
[12] = biological target: T1, Serine/threonine-protein kinase D1 (Homo sapiens) (UniProt Q15139); assay: Inhibition of human PKCmu assessed as residual activity at 1 uM relative to control
T1 sequence (whole entry): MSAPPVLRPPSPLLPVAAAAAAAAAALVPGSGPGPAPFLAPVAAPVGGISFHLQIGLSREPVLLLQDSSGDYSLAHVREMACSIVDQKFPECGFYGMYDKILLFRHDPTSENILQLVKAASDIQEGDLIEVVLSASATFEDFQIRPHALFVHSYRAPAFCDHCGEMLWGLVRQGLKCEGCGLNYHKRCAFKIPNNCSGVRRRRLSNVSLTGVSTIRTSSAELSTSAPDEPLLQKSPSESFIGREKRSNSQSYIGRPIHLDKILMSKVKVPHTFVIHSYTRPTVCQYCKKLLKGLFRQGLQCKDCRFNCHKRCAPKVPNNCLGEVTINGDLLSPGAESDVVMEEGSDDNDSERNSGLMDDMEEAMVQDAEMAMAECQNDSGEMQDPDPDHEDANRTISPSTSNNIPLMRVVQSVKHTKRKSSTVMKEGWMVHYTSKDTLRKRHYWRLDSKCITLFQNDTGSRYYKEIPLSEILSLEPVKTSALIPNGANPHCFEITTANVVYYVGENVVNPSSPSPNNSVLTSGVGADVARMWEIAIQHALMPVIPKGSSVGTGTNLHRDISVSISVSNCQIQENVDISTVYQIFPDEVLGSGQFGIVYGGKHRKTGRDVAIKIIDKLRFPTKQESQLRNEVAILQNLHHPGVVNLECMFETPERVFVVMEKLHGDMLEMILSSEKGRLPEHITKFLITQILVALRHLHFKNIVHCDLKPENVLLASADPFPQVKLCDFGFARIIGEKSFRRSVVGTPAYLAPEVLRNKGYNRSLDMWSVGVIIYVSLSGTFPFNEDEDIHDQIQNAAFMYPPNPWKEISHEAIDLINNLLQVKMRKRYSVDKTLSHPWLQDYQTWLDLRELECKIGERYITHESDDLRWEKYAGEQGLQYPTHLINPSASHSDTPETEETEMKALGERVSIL

[13] = biological target: Rho-associated protein kinase 2 (Homo sapiens) (UniProt O75116); assay: Inhibition of human ROCK2 assessed as residual activity at 1 uM relative to control
Rho-associated protein kinase 2 (Homo sapiens), sequence (O75116 whole entry, looked up): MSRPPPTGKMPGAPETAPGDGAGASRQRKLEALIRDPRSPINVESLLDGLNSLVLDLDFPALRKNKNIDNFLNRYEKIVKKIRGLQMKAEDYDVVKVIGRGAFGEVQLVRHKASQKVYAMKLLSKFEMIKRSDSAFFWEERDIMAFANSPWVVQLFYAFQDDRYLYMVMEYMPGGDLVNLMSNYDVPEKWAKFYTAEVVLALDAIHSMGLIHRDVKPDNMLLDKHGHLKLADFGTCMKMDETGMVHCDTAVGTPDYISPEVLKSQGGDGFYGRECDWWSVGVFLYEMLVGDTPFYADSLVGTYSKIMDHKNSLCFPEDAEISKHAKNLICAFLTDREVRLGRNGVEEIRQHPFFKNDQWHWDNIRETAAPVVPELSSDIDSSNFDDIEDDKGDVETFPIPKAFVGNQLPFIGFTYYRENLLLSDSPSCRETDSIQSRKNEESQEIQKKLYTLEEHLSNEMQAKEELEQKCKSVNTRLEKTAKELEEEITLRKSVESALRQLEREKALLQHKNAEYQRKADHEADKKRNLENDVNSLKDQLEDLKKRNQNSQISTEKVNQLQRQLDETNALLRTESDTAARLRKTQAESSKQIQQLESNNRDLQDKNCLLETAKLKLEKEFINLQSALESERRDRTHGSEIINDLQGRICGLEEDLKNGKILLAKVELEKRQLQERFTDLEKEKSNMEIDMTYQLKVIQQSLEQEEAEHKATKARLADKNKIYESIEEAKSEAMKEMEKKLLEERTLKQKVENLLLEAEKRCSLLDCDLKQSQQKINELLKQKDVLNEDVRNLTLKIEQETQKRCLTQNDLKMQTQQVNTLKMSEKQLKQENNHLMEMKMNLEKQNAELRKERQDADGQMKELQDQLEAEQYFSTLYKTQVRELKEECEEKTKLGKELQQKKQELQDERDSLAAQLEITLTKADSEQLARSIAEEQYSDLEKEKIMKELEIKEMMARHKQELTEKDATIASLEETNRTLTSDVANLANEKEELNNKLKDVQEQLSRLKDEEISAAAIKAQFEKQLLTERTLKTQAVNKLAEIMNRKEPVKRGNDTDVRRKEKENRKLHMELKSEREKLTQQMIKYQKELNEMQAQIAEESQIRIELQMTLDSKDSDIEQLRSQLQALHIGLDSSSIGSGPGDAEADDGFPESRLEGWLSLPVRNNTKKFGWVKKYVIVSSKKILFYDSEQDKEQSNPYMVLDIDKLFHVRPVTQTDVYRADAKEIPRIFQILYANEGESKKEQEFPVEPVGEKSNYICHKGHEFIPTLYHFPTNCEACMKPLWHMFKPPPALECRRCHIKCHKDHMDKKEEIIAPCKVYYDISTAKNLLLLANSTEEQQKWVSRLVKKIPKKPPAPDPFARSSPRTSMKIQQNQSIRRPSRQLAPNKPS

[14] = biological target: Proto-oncogene tyrosine-protein kinase Src (Homo sapiens) (UniProt P12931); assay: Inhibition of human GST-HIS-tagged SRC assessed as residual activity at 0.1 uM relative to control
Proto-oncogene tyrosine-protein kinase Src (Homo sapiens), sequence (P12931 2-536 limits assumed): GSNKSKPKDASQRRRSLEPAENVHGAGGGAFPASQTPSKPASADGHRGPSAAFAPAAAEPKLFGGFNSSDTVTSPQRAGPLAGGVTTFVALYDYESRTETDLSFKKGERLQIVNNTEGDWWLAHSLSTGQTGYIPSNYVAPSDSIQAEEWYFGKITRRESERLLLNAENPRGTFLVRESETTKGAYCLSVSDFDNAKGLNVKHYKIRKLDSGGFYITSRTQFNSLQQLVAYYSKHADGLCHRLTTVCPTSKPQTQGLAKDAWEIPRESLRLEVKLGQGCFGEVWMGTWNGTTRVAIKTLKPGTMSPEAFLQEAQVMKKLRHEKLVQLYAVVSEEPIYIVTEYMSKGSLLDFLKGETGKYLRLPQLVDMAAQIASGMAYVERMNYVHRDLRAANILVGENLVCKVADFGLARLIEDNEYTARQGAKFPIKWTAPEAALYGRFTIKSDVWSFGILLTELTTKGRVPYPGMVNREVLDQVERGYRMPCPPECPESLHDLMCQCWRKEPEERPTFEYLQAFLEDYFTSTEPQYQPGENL

[15] = biological target: T2, Serine/threonine-protein kinase TBK1 (Homo sapiens) (UniProt Q9UHD2); assay: Inhibition of human TBK1 assessed as residual activity at 1 uM relative to control
T2 sequence (whole entry): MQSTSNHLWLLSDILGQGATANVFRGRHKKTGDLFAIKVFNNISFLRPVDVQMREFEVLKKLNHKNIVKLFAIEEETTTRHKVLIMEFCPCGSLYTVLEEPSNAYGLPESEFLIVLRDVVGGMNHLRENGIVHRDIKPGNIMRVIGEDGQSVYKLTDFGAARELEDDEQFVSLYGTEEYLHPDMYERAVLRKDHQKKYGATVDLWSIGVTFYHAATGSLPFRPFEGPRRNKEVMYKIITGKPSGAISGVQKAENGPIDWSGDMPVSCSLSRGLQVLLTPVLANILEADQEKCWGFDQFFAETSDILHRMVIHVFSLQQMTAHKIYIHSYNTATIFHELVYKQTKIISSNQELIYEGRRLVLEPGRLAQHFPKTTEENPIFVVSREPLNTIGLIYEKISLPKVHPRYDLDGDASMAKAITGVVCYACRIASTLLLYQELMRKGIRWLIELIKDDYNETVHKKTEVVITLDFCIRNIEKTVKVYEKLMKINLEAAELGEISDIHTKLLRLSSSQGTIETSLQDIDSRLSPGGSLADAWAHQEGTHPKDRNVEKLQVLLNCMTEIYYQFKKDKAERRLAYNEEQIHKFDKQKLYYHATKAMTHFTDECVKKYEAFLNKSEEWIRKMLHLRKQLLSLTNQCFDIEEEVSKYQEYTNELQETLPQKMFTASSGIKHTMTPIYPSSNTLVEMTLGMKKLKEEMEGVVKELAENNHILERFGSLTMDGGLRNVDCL

[16] = biological target: Vascular endothelial growth factor receptor 1 (Homo sapiens) (UniProt P17948); assay: Inhibition of human VEGFR1 assessed as residual activity at 1 uM relative to control
Vascular endothelial growth factor receptor 1 (Homo sapiens), sequence (P17948 whole entry): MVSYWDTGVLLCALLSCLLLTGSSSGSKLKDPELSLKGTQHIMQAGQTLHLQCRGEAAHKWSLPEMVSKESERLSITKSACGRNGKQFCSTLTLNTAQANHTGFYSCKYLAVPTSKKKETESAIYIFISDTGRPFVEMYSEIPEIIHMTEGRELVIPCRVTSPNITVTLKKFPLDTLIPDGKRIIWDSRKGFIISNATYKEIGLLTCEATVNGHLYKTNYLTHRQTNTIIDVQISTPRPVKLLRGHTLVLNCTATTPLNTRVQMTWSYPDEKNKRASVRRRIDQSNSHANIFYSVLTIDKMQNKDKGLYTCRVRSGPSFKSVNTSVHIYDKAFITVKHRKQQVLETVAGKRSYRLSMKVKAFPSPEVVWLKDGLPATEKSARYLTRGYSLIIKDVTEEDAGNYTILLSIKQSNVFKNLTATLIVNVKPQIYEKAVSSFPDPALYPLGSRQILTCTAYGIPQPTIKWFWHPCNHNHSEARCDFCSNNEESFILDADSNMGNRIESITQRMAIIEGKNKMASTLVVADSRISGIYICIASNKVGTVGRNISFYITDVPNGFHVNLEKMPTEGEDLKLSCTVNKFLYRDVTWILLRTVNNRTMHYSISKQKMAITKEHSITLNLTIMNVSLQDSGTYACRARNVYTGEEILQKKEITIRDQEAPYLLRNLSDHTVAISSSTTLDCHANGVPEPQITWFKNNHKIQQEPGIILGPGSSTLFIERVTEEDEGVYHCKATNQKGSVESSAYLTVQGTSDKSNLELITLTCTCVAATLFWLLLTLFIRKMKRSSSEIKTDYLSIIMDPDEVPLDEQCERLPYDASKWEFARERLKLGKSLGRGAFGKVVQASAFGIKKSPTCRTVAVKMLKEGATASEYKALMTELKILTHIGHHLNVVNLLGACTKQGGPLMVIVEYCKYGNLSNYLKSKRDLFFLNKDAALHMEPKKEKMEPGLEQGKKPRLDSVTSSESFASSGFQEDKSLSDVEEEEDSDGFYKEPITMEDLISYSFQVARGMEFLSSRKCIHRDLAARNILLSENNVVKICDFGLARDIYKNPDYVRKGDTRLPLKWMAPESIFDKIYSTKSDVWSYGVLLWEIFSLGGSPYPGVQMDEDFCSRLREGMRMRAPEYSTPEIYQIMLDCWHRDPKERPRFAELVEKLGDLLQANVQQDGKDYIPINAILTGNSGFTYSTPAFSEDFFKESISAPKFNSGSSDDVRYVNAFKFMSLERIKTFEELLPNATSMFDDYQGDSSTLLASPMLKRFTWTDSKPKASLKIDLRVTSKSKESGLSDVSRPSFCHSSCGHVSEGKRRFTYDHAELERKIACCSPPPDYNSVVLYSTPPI

[17] = biological target: 3-phosphoinositide-dependent protein kinase 1 (Homo sapiens) (UniProt O15530); assay: Inhibition of human PDK1 assessed as residual activity at 1 uM relative to control

Aurora kinase B (Homo sapiens), sequence (Q96GD4 whole entry): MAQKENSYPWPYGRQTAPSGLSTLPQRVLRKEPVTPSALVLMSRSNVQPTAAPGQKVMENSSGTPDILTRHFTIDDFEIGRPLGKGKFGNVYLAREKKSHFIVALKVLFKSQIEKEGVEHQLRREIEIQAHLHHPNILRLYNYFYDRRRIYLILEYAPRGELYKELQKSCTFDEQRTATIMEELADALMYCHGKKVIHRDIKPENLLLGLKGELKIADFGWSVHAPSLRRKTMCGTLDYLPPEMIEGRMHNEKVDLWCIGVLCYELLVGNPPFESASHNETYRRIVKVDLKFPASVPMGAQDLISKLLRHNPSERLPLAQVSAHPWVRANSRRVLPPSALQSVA

SMILES | Activity [1] | Activity [2] | Activity [3] | Activity [4] | Activity [5] | Activity [6] | Activity [7] | Activity [8] | Activity (Homo sapiens [9]) | Activity (Homo sapiens [10]) | Activity [11] | Activity [12] | Activity [13] | Activity [14] | Activity [15] | Activity [16] | Activity [17]
COc1ccc2c(c1)c(/C=C1\C(=O)Nc3ccc(S(=O)(=O)N(C)C)cc31)cn2C | 101% | 85% | 30% | 99% | 89% | 86% | 89% | 97% | 91% | 98% | 95% | 92% | 89% | 93% | 79% | 93% | 84%
CN(C)S(=O)(=O)c1ccc2c(c1)/C(=C/c1cn(C)c3ccc(O)cc13)C(=O)N2 | 105% | 43% | 25% | 92% | 88% | 87% | 98% | 96% | 94% | 103% | 103% | 89% | 69% | 79% | 81% | 93% | 83%
COc1ccc2[nH]cc(/C=C3\C(=O)Nc4ccc(S(N)(=O)=O)cc43)c2c1 | 115% | 95% | 31% | 12% | 92% | 79% | 98% | 93% | 88% | 84% | 87% | 72% | 61% | 107% | 62% | 76% | 66%
CNS(=O)(=O)c1ccc2c(c1)/C(=C/c1cn(C)c3ccc(OC)cc13)C(=O)N2 | 93% | 74% | 50% | 75% | 89% | 91% | 84% | 99% | 91% | 83% | 103% | 93% | 79% | 92% | 93% | 59% | 123%

Continued, values first:

Activity [1] | Activity [2] | Activity [3] | Activity [4] | Activity [5] | Activity [6] | Activity [7] | Activity [8] | Activity (Homo sapiens [9]) | Activity (Homo sapiens [10]) | Activity [11] | Activity [12] | Activity [13] | Activity [14] | Activity [15] | Activity [16] | Activity [17] | SMILES
92% | 79% | 19% | 39% | 87% | 84% | 89% | 100% | 91% | 91% | 102% | 91% | 87% | 113% | 55% | 85% | 75% | COc1ccc2c(c1)c(/C=C1\C(=O)Nc3ccc(S(N)(=O)=O)cc31)cn2C
92% | 59% | 25% | 5% | 88% | 82% | 90% | 104% | 94% | 87% | 94% | 91% | 55% | 124% | 58% | 81% | 70% | Cn1cc(/C=C2\C(=O)Nc3ccc(S(N)(=O)=O)cc32)c2ccccc21
